Results published in US7388111B2, “Non-nucleoside reverse transcriptase inhibitors” (Roche Palo Alto LLC, priority 2005, dated 2008).

Key:
HIV-1 = experiment: Anti-Viral Assay (method of Pauwels et al.); type: cell-based; settings: Human immunodeficiency virus 1, read-out: Anti-Viral Assay
Method: Anti-viral assays were carried out by the method described by R. E. Pauwels et al. J. Virol. Methods 1988 20(4):309-322.

HIV-1 RT = HIV-1 RT (Human immunodeficiency virus type 1 group M subtype B, UniProt P03366); experiment: HIV Reverse Transcriptase Assay: Inhibitor IC50 Determination; type: biochemical; settings: purified recombinant enzyme, poly(rA)/oligo(dT)16 template-primer, 37° C. 30 min
Method: HIV Reverse Transcriptase Assay: Inhibitor IC50 Determination
HIV-1 RT assay was carried out in 96-well Millipore MultiScreen MADVNOB50 plates using purified recombinant enzyme and a poly(rA)/oligo(dT)16 template-primer in a total volume of 50 μL. The assay constituents were 50 mM Tris/HCl, 50 mM NaCl, 1 mM EDTA, 6 mM MgCl2, 5 μM dTTP, 0.15 μCi [^3H] dTTP, 5 μg/ml poly (rA) pre annealed to 2.5 μg/ml oligo (dT)16 and a range of inhibitor concentrations in a final concentration of 10% DMSO. Reactions were initiated by adding 4 nM HIV-1 RT and after incubation at 37° C. for 30 min, they were stopped by the addition of 50 μl ice cold 20% TCA and allowed to precipitate at 4° C. for 30 min. The precipitates were collected by applying vacuum to the plate and sequentially washing with 3×200 μl of 10% TCA and 2×200 μl 70% ethanol. Finally, the plates were dried and radioactivity counted in a Packard TopCounter after the addition of 25 μl scintillation fluid per well. IC50's were calculated by plotting % inhibition versus log10 inhibitor concentrations.

Work on `Cc1cc(C#N)ccc1Oc1ccc(CC(=O)Nc2ccc(S(N)(=O)=O)cc2Br)c(C)c1C` [Compound I-24, N-(2-Bromo-4-sulfamoyl-phenyl)-2-[4-(4-cyano-2-methyl-phenoxy)-2,3-dimethyl-phenyl]-acetamide] yielded an EC50 (HIV-1) of 2.6 nM and an IC50 (HIV-1 RT) of 202 nM.
